{"source": "PubChem BioAssay (NCI)", "experiment_in_all_cases": "DTP human tumour cell line panel, 48 h", "key": {"[1]": {"test_system": "LOX IMVI melanoma"}, "[2]": {"test_system": "SF-268 CNS"}, "[3]": {"test_system": "MALME-3M melanoma"}, "[4]": {"test_system": "A498 renal"}, "[5]": {"test_system": "HL-60(TB) leukemia"}, "[6]": {"test_system": "SNB-75 CNS"}, "[7]": {"test_system": "SK-MEL-2 melanoma"}, "[8]": {"test_system": "HS 578T breast"}, "[9]": {"test_system": "NCI-H23 lung"}, "[10]": {"test_system": "UACC-257 melanoma"}, "[11]": {"test_system": "HCC-2998 colon"}, "[12]": {"test_system": "MCF7 breast"}, "[13]": {"test_system": "SK-OV-3 ovarian"}, "[14]": {"test_system": "EKVX NSCLC"}, "[15]": {"test_system": "CCRF-CEM leukemia"}, "[16]": {"test_system": "HCT-116 colon"}, "[17]": {"test_system": "IGROV1 ovarian"}, "[18]": {"test_system": "SF-295 CNS"}, "[19]": {"test_system": "DU-145 prostate"}, "[20]": {"test_system": "HOP-62 NSCLC"}, "[21]": {"test_system": "TK-10 renal"}, "[22]": {"test_system": "SR leukemia"}, "[23]": {"test_system": "OVCAR-4 ovarian"}, "[24]": {"test_system": "HOP-92 NSCLC"}, "[25]": {"test_system": "NCI-H226 lung"}, "[26]": {"test_system": "MOLT-4 leukemia"}, "[27]": {"test_system": "CAKI-1 renal"}, "[28]": {"test_system": "MDA-MB-468 breast"}, "[29]": {"test_system": "A549 NSCLC"}, "[30]": {"test_system": "UACC-62 melanoma"}, "[31]": {"test_system": "SN12C renal"}, "[32]": {"test_system": "RXF 393 renal"}, "[33]": {"test_system": "PC-3 prostate"}, "[34]": {"test_system": "T-47D breast"}, "[35]": {"test_system": "SK-MEL-5 melanoma"}, "[36]": {"test_system": "RPMI-8226 leukemia"}, "[37]": {"test_system": "M14 melanoma"}, "[38]": {"test_system": "BT-549 breast"}, "[39]": {"test_system": "MDA-MB-231 breast"}, "[40]": {"test_system": "HT29 colon"}, "[41]": {"test_system": "K-562 leukemia"}}, "note": "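Test compounds were applied to cells in 96-well plates for 48 hours at 5 doses. Here, GI50 denotes the concentration required for 50% inhibition of growth. TGI marks complete inhibition of growth.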", "data": [{"smiles": "O=C(/C=C/c1ccc(F)cc1)c1nc2ccccc2n1Cc1ccc(F)cc1", "values": [{"measurement": "GI50", "setting": "[1]", "value": 1.56, "unit": "µM"}, {"measurement": "TGI", "setting": "[1]", "value": 3.08, "unit": "µM"}, {"measurement": "GI50", "setting": "[2]", "value": 3.33, "unit": "µM"}, {"measurement": "TGI", "setting": "[2]", "value": "> 100", "unit": "µM"}, {"measurement": "GI50", "setting": "[3]", "value": 2.61, "unit": "µM"}, {"measurement": "TGI", "setting": "[3]", "value": 9.59, "unit": "µM"}, {"measurement": "GI50", "setting": "[4]", "value": "> 100", "unit": "µM"}, {"measurement": "TGI", "setting": "[4]", "value": "> 100", "unit": "µM"}, {"measurement": "GI50", "setting": "[5]", "value": 1.73, "unit": "µM"}, {"measurement": "TGI", "setting": "[5]", "value": 4.81, "unit": "µM"}, {"measurement": "GI50", "setting": "[6]", "value": 1.11, "unit": "µM"}, {"measurement": "TGI", "setting": "[6]", "value": 6.44, "unit": "µM"}, {"measurement": "GI50", "setting": "[7]", "value": 2.35, "unit": "µM"}, {"measurement": "TGI", "setting": "[7]", "value": 6.17, "unit": "µM"}, {"measurement": "GI50", "setting": "[8]", "value": 2.58, "unit": "µM"}, {"measurement": "TGI", "setting": "[8]", "value": 20.4, "unit": "µM"}, {"measurement": "GI50", "setting": "[9]", "value": 2.88, "unit": "µM"}, {"measurement": "TGI", "setting": "[9]", "value": 14.1, "unit": "µM"}, {"measurement": "GI50", "setting": "[10]", "value": 3.1, "unit": "µM"}, {"measurement": "TGI", "setting": "[10]", "value": "> 100", "unit": "µM"}, {"measurement": "GI50", "setting": "[11]", "value": 2.1, "unit": "µM"}, {"measurement": "TGI", "setting": "[11]", "value": 4.71, "unit": "µM"}, {"measurement": "GI50", "setting": "[12]", "value": 1.62, "unit": "µM"}, {"measurement": "TGI", "setting": "[12]", "value": "> 100", "unit": "µM"}, {"measurement": "GI50", "setting": "[13]", "value": 15.5, "unit": "µM"}, {"measurement": "TGI", "setting": "[13]", "value": "> 100", "unit": "µM"}, {"measurement": "GI50", "setting": "[14]", "value": 3.48, "unit": "µM"}, {"measurement": "TGI", "setting": "[14]", "value": "> 100", "unit": "µM"}, {"measurement": "GI50", "setting": "[15]", "value": 2.26, "unit": "µM"}, {"measurement": "TGI", "setting": "[15]", "value": 7.46, "unit": "µM"}, {"measurement": "GI50", "setting": "[16]", "value": 1.86, "unit": "µM"}, {"measurement": "TGI", "setting": "[16]", "value": 4.46, "unit": "µM"}, {"measurement": "GI50", "setting": "[17]", "value": 3.03, "unit": "µM"}, {"measurement": "TGI", "setting": "[17]", "value": "> 100", "unit": "µM"}, {"measurement": "GI50", "setting": "[18]", "value": 2.59, "unit": "µM"}, {"measurement": "TGI", "setting": "[18]", "value": 8.27, "unit": "µM"}, {"measurement": "GI50", "setting": "[19]", "value": 3.48, "unit": "µM"}, {"measurement": "TGI", "setting": "[19]", "value": "> 100", "unit": "µM"}, {"measurement": "GI50", "setting": "[20]", "value": 3.2, "unit": "µM"}, {"measurement": "TGI", "setting": "[20]", "value": 17.6, "unit": "µM"}, {"measurement": "GI50", "setting": "[21]", "value": 2.97, "unit": "µM"}, {"measurement": "TGI", "setting": "[21]", "value": "> 100", "unit": "µM"}, {"measurement": "GI50", "setting": "[22]", "value": 1.86, "unit": "µM"}, {"measurement": "TGI", "setting": "[22]", "value": 6.01, "unit": "µM"}, {"measurement": "GI50", "setting": "[23]", "value": 4.3, "unit": "µM"}, {"measurement": "TGI", "setting": "[23]", "value": "> 100", "unit": "µM"}, {"measurement": "GI50", "setting": "[24]", "value": 2.56, "unit": "µM"}, {"measurement": "TGI", "setting": "[24]", "value": 57.9, "unit": "µM"}, {"measurement": "GI50", "setting": "[25]", "value": 5.79, "unit": "µM"}, {"measurement": "TGI", "setting": "[25]", "value": "> 100", "unit": "µM"}, {"measurement": "GI50", "setting": "[26]", "value": 2.06, "unit": "µM"}, {"measurement": "TGI", "setting": "[26]", "value": 6.04, "unit": "µM"}, {"measurement": "GI50", "setting": "[27]", "value": 2.26, "unit": "µM"}, {"measurement": "TGI", "setting": "[27]", "value": "> 100", "unit": "µM"}, {"measurement": "GI50", "setting": "[28]", "value": 2.19, "unit": "µM"}, {"measurement": "TGI", "setting": "[28]", "value": 6.05, "unit": "µM"}, {"measurement": "GI50", "setting": "[29]", "value": 3.92, "unit": "µM"}, {"measurement": "TGI", "setting": "[29]", "value": "> 100", "unit": "µM"}, {"measurement": "GI50", "setting": "[30]", "value": 2.02, "unit": "µM"}, {"measurement": "TGI", "setting": "[30]", "value": 7.09, "unit": "µM"}, {"measurement": "GI50", "setting": "[31]", "value": 3.64, "unit": "µM"}, {"measurement": "TGI", "setting": "[31]", "value": "> 100", "unit": "µM"}, {"measurement": "GI50", "setting": "[32]", "value": 1.59, "unit": "µM"}, {"measurement": "TGI", "setting": "[32]", "value": 3.4, "unit": "µM"}, {"measurement": "GI50", "setting": "[33]", "value": 3.63, "unit": "µM"}, {"measurement": "TGI", "setting": "[33]", "value": "> 100", "unit": "µM"}, {"measurement": "GI50", "setting": "[34]", "value": 3.13, "unit": "µM"}, {"measurement": "TGI", "setting": "[34]", "value": "> 100", "unit": "µM"}, {"measurement": "GI50", "setting": "[35]", "value": 2.63, "unit": "µM"}, {"measurement": "TGI", "setting": "[35]", "value": 9.85, "unit": "µM"}, {"measurement": "GI50", "setting": "[36]", "value": 1.86, "unit": "µM"}, {"measurement": "TGI", "setting": "[36]", "value": 5.03, "unit": "µM"}, {"measurement": "GI50", "setting": "[37]", "value": 2.82, "unit": "µM"}, {"measurement": "TGI", "setting": "[37]", "value": "> 100", "unit": "µM"}, {"measurement": "GI50", "setting": "[38]", "value": 2.6, "unit": "µM"}, {"measurement": "TGI", "setting": "[38]", "value": 8.56, "unit": "µM"}, {"measurement": "GI50", "setting": "[39]", "value": 2.25, "unit": "µM"}, {"measurement": "TGI", "setting": "[39]", "value": 5.59, "unit": "µM"}, {"measurement": "GI50", "setting": "[40]", "value": 2.33, "unit": "µM"}, {"measurement": "TGI", "setting": "[40]", "value": 4.93, "unit": "µM"}, {"measurement": "GI50", "setting": "[41]", "value": 2.68, "unit": "µM"}, {"measurement": "TGI", "setting": "[41]", "value": "> 100", "unit": "µM"}]}]}
